Columns and labels:
Type in all cases: functional, Splenocyte
[1] = Immunostimulatory activity in Balb/c mouse splenocytes assessed as increase in conA-induced T cell proliferation at 100 uM after 72 hrs by MTT assay relative to control
[2] = Immunostimulatory activity in Balb/c mouse splenocytes assessed as increase in conA-induced T cell proliferation at 5 uM after 72 hrs by MTT assay relative to control
[3] = Immunostimulatory activity in Balb/c mouse splenocytes assessed as increase in conA-induced T cell proliferation at 50 uM after 72 hrs by MTT assay relative to control
[4] = Immunostimulatory activity in Balb/c mouse splenocytes assessed as increase in conA-induced T cell proliferation at 25 uM after 72 hrs by MTT assay relative to control
[5] = Immunostimulatory activity in Balb/c mouse splenocytes assessed as increase in conA-induced T cell proliferation at 10 uM after 72 hrs by MTT assay relative to control

Row | Structure (SMILES) | Activity [1] | Activity [2] | Activity [3] | Activity [4] | Activity [5]
1 | O=C1CS[C@H]([C@H]2O[C@H](CO)[C@@H](O)[C@@H]2O)N1c1ccc(Cl)cc1 | 107.1% | 101.6% | 30.9% | 87.6% | 91.5%
2 | COc1cccc(N2C(=O)CS[C@H]2[C@H]2O[C@H](CO)[C@@H](O)[C@@H]2O)c1 | 162.7% | 146% | 147.6% | 156.3% | 134.1%
3 | COc1ccc(N2C(=O)CS[C@H]2[C@H]2O[C@H](CO)[C@@H](O)[C@@H]2O)cc1 | 99.2% | – | 103.2% | 106.8% | 106.8%
4 | Cc1ccc(N2C(=O)CS[C@H]2[C@H]2O[C@H](CO)[C@@H](O)[C@@H]2O)cc1 | 95.2% | 84.9% | 96.3% | 86.1% | 83.7%
5 | O=C1CS[C@H]([C@H]2O[C@H](CO)[C@@H](O)[C@@H]2O)N1c1cccc(Cl)c1 | 144.4% | 162.2% | 161.1% | 158.7% | 155.6%
6 | Cc1ccc(N2C(=O)CS[C@@H]2[C@H]2O[C@H](CO)[C@@H](O)[C@@H]2O)cc1 | 105.6% | 91.2% | 104% | 95.6% | 110%
7 | O=C1CS[C@@H]([C@H]2O[C@H](CO)[C@@H](O)[C@@H]2O)N1c1ccc(Cl)cc1 | 112.4% | 100% | 112.3% | 102.2% | 101.2%
8 | CCOC(=O)c1ccc(N2C(=O)CS[C@H]2[C@H]2O[C@H](CO)[C@@H](O)[C@@H]2O)cc1 | 142.9% | 153.2% | 136.5% | 161.9% | 136.5%
9 | Cc1cccc(N2C(=O)CS[C@@H]2[C@H]2O[C@H](CO)[C@@H](O)[C@@H]2O)c1 | 160.3% | 163.5% | 134.9% | 157.9% | 155.6%
10 | O=C1CS[C@@H]([C@H]2O[C@H](CO)[C@@H](O)[C@@H]2O)N1c1cccc(Cl)c1 | 126% | 139.7% | 121.5% | 130.3% | 138.2%
11 | COc1ccc(N2C(=O)CS[C@@H]2[C@H]2O[C@H](CO)[C@@H](O)[C@@H]2O)cc1 | 99.6% | 108.8% | 93.6% | 97.2% | 105.2%
12 | Cc1cccc(N2C(=O)CS[C@H]2[C@H]2O[C@H](CO)[C@@H](O)[C@@H]2O)c1 | 169.8% | 149.2% | 158.7% | 152.4% | 142.1%
13 | COc1cccc(N2C(=O)CS[C@@H]2[C@H]2O[C@H](CO)[C@@H](O)[C@@H]2O)c1 | 125.4% | 17.6% | 158.7% | 129.3% | 165.1%
14 | CCOC(=O)c1ccc(N2C(=O)CS[C@@H]2[C@H]2O[C@H](CO)[C@@H](O)[C@@H]2O)cc1 | 180.2% | 132.5% | 206.3% | 126.2% | 177%
